Measurements taken from publication PMC6277434, “Discovery of a potent HMG-CoA reductase degrader that eliminates statin-induced reductase accumulation and lowers cholesterol” (Nature Communications, 2018).

Target: T1, HMGCR (TM1-8)-GFP (Cricetulus griseus, UniProt P00347)
T1 sequence (P00347 1-346): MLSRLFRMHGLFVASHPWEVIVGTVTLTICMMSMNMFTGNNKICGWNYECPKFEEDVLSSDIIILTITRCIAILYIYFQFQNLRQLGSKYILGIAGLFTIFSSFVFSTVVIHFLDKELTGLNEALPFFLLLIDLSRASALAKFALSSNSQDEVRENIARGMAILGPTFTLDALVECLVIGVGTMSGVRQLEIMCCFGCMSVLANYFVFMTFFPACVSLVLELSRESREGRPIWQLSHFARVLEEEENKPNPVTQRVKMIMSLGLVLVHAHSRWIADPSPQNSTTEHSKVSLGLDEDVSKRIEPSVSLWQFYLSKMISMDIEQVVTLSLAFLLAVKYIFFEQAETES
Experiment: HMGCR (TM1-8)-GFP fluorescent assay (high-content imaging) in CHG cells
Conditions: 16 h; for remaining activity at 0.1 µM / remaining activity at 0.3 µM / remaining activity at 1 µM / remaining activity at 3 µM / remaining activity at 10 µM / remaining activity at 20 µM / remaining activity at 30 µM: read-out: HMGCR (TM1-8)-GFP fluorescent intensity, mean; for effect on HMGCR (TM1-8)-GFP intensity: CHG cells

SMILES | remaining activity at 0.1 µM | remaining activity at 0.3 µM | remaining activity at 1 µM | remaining activity at 3 µM | remaining activity at 10 µM | remaining activity at 20 µM | remaining activity at 30 µM | effect on HMGCR (TM1-8)-GFP intensity
CCC1(CC)C2=CCC3C(CC[C@@]4(C)C3CC[C@@H]4[C@H](C)CCCC(C)C)[C@@]2(C)CC[C@@H]1O (stereo partly shown) [Compound 8] | 90.5% | 79.5% | 82.7% | 83.2% | 89.3% | 91.4% | 93.9% | did not decrease the HMGCR (TM1-8)-GFP intensity
C=CCC1(CC=C)C2=CCC3C(CC[C@@]4(C)C3CC[C@@H]4[C@H](C)CCCC(C)C)[C@@]2(C)CC[C@@H]1O (stereo partly shown) [Compound 9] | 95.3% | 92.7% | 80.9% | 90.8% | 93.7% | 88.7% | 90.8% | did not decrease the HMGCR (TM1-8)-GFP intensity
CC(C)CCC[C@@H](C)[C@H]1CCC2C3CC=C4C5(CCCCC5)[C@@H](O)CC[C@]4(C)C3CC[C@@]21C (stereo partly shown) [Compound 10] | 100% | 106% | 92.7% | 102% | 103% | 98.6% | 101% | did not decrease the HMGCR (TM1-8)-GFP intensity
CCC1(CCOC)C2=CCC3C(CCC4(C)C(C(C)CCCC(C)C)CCC34)C2(C)CCC1O (stereo not shown) [Compound 11] | 90.8% | 97.1% | 100% | 91.7% | 93.3% | 97.4% | 95.4% | did not decrease the HMGCR (TM1-8)-GFP intensity
COCCC1(CCOC)C2=CCC3C(CC[C@@]4(C)C3CC[C@@H]4[C@H](C)CCCC(C)C)[C@@]2(C)CC[C@@H]1O (stereo partly shown) [Compound 14] | 90.2% | 107% | 99.6% | 93.4% | 99.4% | 106% | 98.6% | did not decrease the HMGCR (TM1-8)-GFP intensity
CC(C)CCC[C@@H](C)[C@H]1CCC2C3C(CC[C@@]21C)[C@@]1(C)CC[C@H](O)C(C)(C)C1=C[C@H]3N=[N+]=[N-] (stereo partly shown) [Compound 18] | 99.5% | 103% | 103% | 99.4% | 96.7% | 98.8% | 93% | 
CC(C)CCC[C@@H](C)[C@H]1CCC2C3C(CC[C@@]21C)[C@@]1(C)CC[C@H](O)C(C)(C)C1=C[C@H]3N (stereo partly shown) [Compound 19] | 90.2% | 107% | 99.6% | 93.4% | 99.4% | 106% | 99.6% | 
CC(=O)N[C@@H]1C=C2C(C)(C)[C@@H](O)CC[C@]2(C)C2CC[C@@]3(C)C(CC[C@@H]3[C@H](C)CCCC(C)C)C21 (stereo partly shown) [Compound 22] | 97.3% | 91.4% | 89.7% | 101% | 97.5% | 97.9% | 93.5% | 
CC(C)CCC[C@@H](C)[C@H]1CCC2C3C(=O)C=C4C(C)(C)[C@@H](O)CC[C@]4(C)C3CC[C@@]21C (stereo partly shown) [Compound 33] | 93% | 97.3% | 94.4% | 96.3% | 95.2% | 85% |  | 
